Marks after values point to notes of the source that are not given here.
Tested on: Longissimus dorsi muscle
Experiment: Chemical and physicochemical quality of Longissimus dorsi muscle from supplemented cattle
Assay type: in vivo, beef cattle of commercial breeds
Conditions: for SF: shear force: Warner-Bratzler; for L* value: fresh meat brightness; for a* value: fresh meat redness; for b* value: fresh meat yellowness; for pH: meat
Protocol: Subsequent to the carcass classification the rib eye cut (LD muscle) was obtained of the left side of each selected carcass. Meat samples were identified, vacuum packed, frozen at -18° C., and then shipped under refrigeration by air courier to the Centro de Investigación en Alimentacion y Desarrollo A.C. (CIAD) facilities at Hermosillo, Sonora, to perform quality analysis of the meat: Chemical analysis (moisture and fat content), physicochemical (objective color parameters L*, which measures the brightness of the meat, a* value, which measures the redness, and b* value which measures the tendency towards yellowness, and hue-angle, Warner-Bratzler shear force, water retention capacity and pH). A sensory test was done by a trained panel consisting of 10 members using a descriptive test with a semi-structured 10 cm scale, where zero indicates a […] of the attribute and a 10 indicates a favorable rating (e.g. tenderness, zero indicates extremely hard and 10 extremely tender). The sensory attributes that were measured: total color and overall appearance of raw meat, flavor, odor, color, tenderness, fat perception, juiciness, and perception of connective tissue in cooked meat. […] To measure cooking loss, the meat sample was weighed before and immediately after reaching the final cooking temperature, which was expressed in percentage. All data for response variables of the quality of carcass and meat were analyzed under a completely randomized design, with a one-way ANOVA, taking the experimental treatments as a fixed effect. For carcass BFT and REA characteristics the hot carcass weight was used as a covariable. Regarding the sensory attributes, the model also included the effect of panelist as the repeated measure. The variables of the shelf life study were analyzed as a completely randomized design with factorial arrangement, factor A being the treatment with 4 levels, and factor B, the storage time with 5 levels. When there were statistical differences (P<0.05) between treatments, average comparisons were performed by the multiple range test of Tukey.

[1] = 240 ppm ferulic acid (FA30) or 6 ppm zilpaterol hydrochloride (ZX), last 30 days of fattening
[2] = 240 ppm ferulic acid, last 60 days of fattening (FA60)

COc1cc(/C=C/C(=O)O)ccc1O [ferulic acid, trans-4-hydroxy-3-methoxy cinnamic acid]
Cooking loss [1]: 17.65^ab % | Fat content [1]: 2.13% | Hue angle [1]: 36.79 | Moisture [1]: 73.10% | WHC: water holding capacity [1]: 25.73% | Cooking loss [2]: 19.65^b % | Fat content [2]: 2.52% | Hue angle [2]: 37.13 | Moisture [2]: 73.41% | WHC: water holding capacity [2]: 25.44% | SF: shear force [1]: values significantly lower | SF: shear force (240 ppm ferulic acid (FA30) or 6 ppm zilpaterol hydrochloride (ZX), last 30 days of fattening, listed as FA30): 7.94^a kg F | SF: shear force [2]: 8.32^ab kg F | L* value [1]: 36.66 | L* value [2]: 35.74 | a* value [1]: 16.86 | a* value [2]: 17.55 | b* value [1]: 12.53 | b* value [2]: 13.22 | pH [1]: 5.54 | pH [2]: 5.57

Reference: patent US20130041036A1, “FERULIC ACID AS FEED SUPPLEMENT IN BEEF CATTLE TO PROMOTE ANIMAL GROWTH AND IMPROVE THE MEAT QUALITY OF THE CARCASS AND THE MEAT” (BIOKAB, S.A. DE C.V., priority 2011, published 2013)
